“And” between values parts separate entries of the source, which are not always exact repeats. Identical values can stand only once. Toxic doses and inconclusive results are not listed. Rule as the data show it: active = T/C of 150% or more; inactive = T/C below 125%.
System: L1210 leukemia ip in BDF1 mice, survival T/C
Assay: NCI In Vivo Anticancer Drug Screen. Data for tumor model L1210 Leukemia (intraperitoneal) in B6D2F1 (BDF1) mice
Details: endpoint: mean survival time, higher = longer survival
Summary of the method: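 Ratio derived from survival: compound-dosed mice over vehicle-dosed mice, all bearing a transplantable tumor.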

[1] = dose: 100.0 mg/kg/injection, schedule: Q04DX003 (ip), vehicle: saline
[2] = dose: 200.0 mg/kg/injection, schedule: Q04DX003 (ip), vehicle: saline
[3] = dose: 400.0 mg/kg/injection, schedule: Q04DX003 (ip), vehicle: saline
[4] = dose: 75.0 mg/kg/injection, schedule: Q01DX001 (ip), vehicle: saline
[5] = dose: 150.0 mg/kg/injection, schedule: Q01DX001 (ip), vehicle: saline
[6] = dose: 100.0 mg/kg/injection, schedule: Q04DX002 (ip), vehicle: saline
[7] = dose: 200.0 mg/kg/injection, schedule: Q04DX002 (ip), vehicle: saline
[8] = dose: 400.0 mg/kg/injection, schedule: Q04DX002 (ip), vehicle: saline
[9] = dose: 100.0 mg/kg/injection, schedule: Q04DX002 (ip), vehicle: Klucel (hydroxypropylcellulose) (HPC)
[10] = dose: 200.0 mg/kg/injection, schedule: Q04DX002 (ip), vehicle: Klucel (hydroxypropylcellulose) (HPC)
[11] = dose: 400.0 mg/kg/injection, schedule: Q04DX002 (ip), vehicle: Klucel (hydroxypropylcellulose) (HPC)
[12] = dose: 100.0 mg/kg/injection, schedule: Q01DX009 (ip), vehicle: Klucel (hydroxypropylcellulose) (HPC)
[13] = dose: 100.0 mg/kg/injection, schedule: Q04DX003 (ip), vehicle: Klucel (hydroxypropylcellulose) (HPC)
[14] = dose: 200.0 mg/kg/injection, schedule: Q01DX009 (ip), vehicle: Klucel (hydroxypropylcellulose) (HPC)
[15] = dose: 200.0 mg/kg/injection, schedule: Q04DX003 (ip), vehicle: Klucel (hydroxypropylcellulose) (HPC)
[16] = dose: 400.0 mg/kg/injection, schedule: Q01DX009 (ip), vehicle: Klucel (hydroxypropylcellulose) (HPC)
[17] = dose: 400.0 mg/kg/injection, schedule: Q04DX003 (ip), vehicle: Klucel (hydroxypropylcellulose) (HPC)

Measured: T/C

Cc1ccc(S(C)(=N)=O)cc1 (stereo not drawn)
inactive: dose: 100.0 mg/kg/injection, schedule: Q01DX009 (ip), vehicle: saline 102 % of control | [1] 95 % of control | dose: 200.0 mg/kg/injection, schedule: Q01DX009 (ip), vehicle: saline 100 % of control | [2] 98 % of control | dose: 400.0 mg/kg/injection, schedule: Q01DX009 (ip), vehicle: saline 105 % of control | [3] 98 % of control

N#Cc1cc[n+](Cc2ccccc2)cc1
inactive: [4] 101 % of control | [5] 102 % of control

CC1(c2ccccc2)CC1(Br)Br (stereo not drawn)
inactive: [6] 95 % of control | [7] 95 % of control | [8] 100 % of control

Cc1c(C(C)(C)C)cc(CC(C)C)c(O)c1-c1c(C)c(CC(C)C)cc(C(C)(C)C)c1O
inactive: [9] 98 % of control | [10] 91 % of control | [11] 94 % of control

Cc1ccccc1NC(=O)N(O)C1(C#N)CCCCC1
inactive: dose: 100.0 mg/kg/injection, schedule: Q01DX001 (ip), vehicle: saline 91 % of control | dose: 200.0 mg/kg/injection, schedule: Q01DX001 (ip), vehicle: saline 93 % of control | dose: 400.0 mg/kg/injection, schedule: Q01DX001 (ip), vehicle: saline 93 % of control

CCOC(=O)c1c(-c2ccc([N+](=O)[O-])cc2)c(C#N)n(-c2ccccc2)c1C
inactive: [9] 95 % of control | [10] 92 % of control | [11] 103 % of control

O=C(C=C(C(F)(F)F)C(F)(F)F)c1cc(Cl)ccc1Cl
inactive: dose: 12.5 mg/kg/injection, schedule: Q01DX009 (ip), vehicle: saline with Tween-80 110 % of control | dose: 12.5 mg/kg/injection, schedule: Q04DX003 (ip), vehicle: saline with Tween-80 97 % of control | dose: 25.0 mg/kg/injection, schedule: Q01DX009 (ip), vehicle: saline with Tween-80 102 % of control | dose: 25.0 mg/kg/injection, schedule: Q04DX003 (ip), vehicle: saline with Tween-80 100 % of control | dose: 50.0 mg/kg/injection, schedule: Q04DX003 (ip), vehicle: saline with Tween-80 105 % of control

CCC(=O)Oc1ccc(OCc2ccccc2)cc1
inactive: [12] 95 % of control | [13] 95 % of control | [14] 97 % of control | [15] 98 % of control | [16] 98 % of control | [17] 95 % of control

CC(=O)NC1(CO)CCCCC1
inactive: [1] 105 % of control | [2] 95 % of control | [3] 94 % of control

CC(=O)Nc1ncc(CCC2OCCO2)c(=O)[nH]1
inactive: dose: 100.0 mg/kg/injection, schedule: Q01DX001 (ip), vehicle: Klucel (hydroxypropylcellulose) (HPC) 95 % of control | dose: 200.0 mg/kg/injection, schedule: Q01DX001 (ip), vehicle: Klucel (hydroxypropylcellulose) (HPC) 97 % of control | dose: 400.0 mg/kg/injection, schedule: Q01DX001 (ip), vehicle: Klucel (hydroxypropylcellulose) (HPC) 98 % of control

Cc1cccc(NC(=O)Nc2ccccc2Cl)c1C
inactive: [12] 94 % of control | [13] 95 % of control | [14] 92 % of control | [15] 110 % of control | [16] 96 % of control | [17] 96 % of control

Cc1c2c(n(C)c1C(=O)N1CCCCC1)CCCC2=O
inactive: dose: 75.0 mg/kg/injection, schedule: Q01DX001 (ip), vehicle: carboxymethylcellulose (CMC) 103 % of control | dose: 150.0 mg/kg/injection, schedule: Q01DX001 (ip), vehicle: carboxymethylcellulose (CMC) 101 % of control | dose: 300.0 mg/kg/injection, schedule: Q01DX001 (ip), vehicle: carboxymethylcellulose (CMC) 98 % of control

COc1ccc(C=O)cc1OC
inactive: [12] 101 % of control | [14] 102 % of control | [16] 96 % of control

NC(CC(O)C(=O)O)C(=O)O (stereo not drawn)
inactive: dose: 12.5 mg/kg/injection, schedule: Q04DX002 (ip), vehicle: saline 95 % of control | dose: 25.0 mg/kg/injection, schedule: Q04DX002 (ip), vehicle: saline 106 % of control and 96 % of control | dose: 50.0 mg/kg/injection, schedule: Q04DX002 (ip), vehicle: saline 106 % of control and 96 % of control | dose: 100.0 mg/kg/injection, schedule: Q01DX001 (ip), vehicle: saline with Tween-80 93 % of control | [6] 101 % of control | dose: 200.0 mg/kg/injection, schedule: Q01DX001 (ip), vehicle: saline with Tween-80 97 % of control | dose: 400.0 mg/kg/injection, schedule: Q01DX001 (ip), vehicle: saline with Tween-80 87 % of control

ClCCN(CCCl)c1ccc(/C=C\c2ccnc3ccccc23)cc1
inactive: dose: 100.0 mg/kg/injection, schedule: Q01DX009 (ip), vehicle: carboxymethylcellulose (CMC) 88 % of control | dose: 100.0 mg/kg/injection, schedule: Q04DX003 (ip), vehicle: other 96 % of control | dose: 200.0 mg/kg/injection, schedule: Q01DX009 (ip), vehicle: other 90 % of control | dose: 200.0 mg/kg/injection, schedule: Q04DX003 (ip), vehicle: other 96 % of control | dose: 400.0 mg/kg/injection, schedule: Q04DX003 (ip), vehicle: other 98 % of control

O=NN(CCCN(N=O)C(=O)Nc1c[nH]c(=O)[nH]c1=O)C(=O)Nc1c[nH]c(=O)[nH]c1=O
inactive: dose: 50.0 mg/kg/injection, schedule: Q01DX Z (ip), vehicle: carboxymethylcellulose (CMC) 110 % of control | dose: 75.0 mg/kg/injection, schedule: Q01DX Z (ip), vehicle: carboxymethylcellulose (CMC) 110 % of control | dose: 100.0 mg/kg/injection, schedule: Q01DX Z (ip), vehicle: carboxymethylcellulose (CMC) 115 % of control | dose: 150.0 mg/kg/injection, schedule: Q01DX Z (ip), vehicle: carboxymethylcellulose (CMC) 111 % of control | dose: 200.0 mg/kg/injection, schedule: Q01DX Z (ip), vehicle: carboxymethylcellulose (CMC) 119 % of control

S=c1[nH]ccc2n[nH]nc12
inactive: dose: 100.0 mg/kg/injection, schedule: Q04DX003 (ip), vehicle: saline with Tween-80 101 % of control | dose: 200.0 mg/kg/injection, schedule: Q04DX003 (ip), vehicle: saline with Tween-80 98 % of control | dose: 400.0 mg/kg/injection, schedule: Q04DX003 (ip), vehicle: saline with Tween-80 101 % of control

Cc1c2ccnc(-c3ccc(F)cc3)c2cc2c1[nH]c1ccccc12
inactive: dose: 16.0 mg/kg/injection, schedule: Q01DX005 (ip), vehicle: saline 100 % of control | dose: 32.0 mg/kg/injection, schedule: Q01DX005 (ip), vehicle: saline 100 % of control | dose: 64.0 mg/kg/injection, schedule: Q01DX005 (ip), vehicle: saline 105 % of control | dose: 128.0 mg/kg/injection, schedule: Q01DX005 (ip), vehicle: saline 103 % of control

COC(=O)CCNc1ccccc1-c1ccccc1
inactive: [6] 95 % of control | [7] 114 % of control | [8] 103 % of control

O=C(O)c1c(Cl)c(Cl)c(Cl)c(Cl)c1C(=O)O.O=C(O)c1c(Cl)c(Cl)c(Cl)c(Cl)c1C(=O)O.[Pt]
inactive: dose: 100.0 mg/kg/injection, schedule: Q04DX003 (ip), vehicle: saline sonified 105 % of control

CCCC[n+]1ccc(C#N)cc1
inactive: [4] 103 % of control | [5] 95 % of control

CC1(C)CC(N=Cc2ccccc2O)CC(C)(C)N1O.CC1(C)CC(N=Cc2ccccc2O)CC(C)(C)N1O.[Zn]
inactive: dose: 25.0 mg/kg/injection, schedule: Q04DX002 (ip), vehicle: Klucel (hydroxypropylcellulose) (HPC) 91 % of control | dose: 50.0 mg/kg/injection, schedule: Q04DX002 (ip), vehicle: Klucel (hydroxypropylcellulose) (HPC) 91 % of control | [9] 94 % of control

COC(=O)NC(=S)Nc1ccccc1NC(=S)NC(=O)OC
inactive: dose: 25.0 mg/kg/injection, schedule: Q01DX009 (ip), vehicle: Klucel (hydroxypropylcellulose) (HPC) 94 % of control | dose: 50.0 mg/kg/injection, schedule: Q01DX009 (ip), vehicle: Klucel (hydroxypropylcellulose) (HPC) 102 % of control | [12] 105 % of control | [13] 96 % of control | [15] 99 % of control | [17] 87 % of control
